This is an account of results in PMC2818883 (Inorganic chemistry, 2010).

For one series, the system named is HIV. As to conditions: cited from earlier work.
In the next series the test system is MT-4 cells. Briefly: Cytotoxicity evaluation in uninfected MT-4 cells. It counts as cell-based.
For series [1], the system named is HIV-1 (IIIB) and HIV-2 (ROD) strains. Type of series: cell-based. The following applies: for IC50: read-out: IC50 values, text summary over HIV-1 (IIIB) and HIV-2 (ROD) strains.
For the next series, the system named is HIV-2 (ROD). Briefly: Anti-HIV activity in MT-4 cell cultures, HIV-2. It counts as cell-based. The following applies: read-out: av. IC50, average, MT-4 cells.

Where two headings read alike, the source gives them in different places.

What is called IC50 is the concentration that inhibits the measured activity by half. Regarding `c1cc(CN2CCCNCCNCCCNCC2)ccc1CN1CCCNCCNCCCNCC1` [AMD3100, xylylbicyclam], the IC50 in the series on HIV (read-out: IC50 against HIV, entry inhibitor drug against HIV) is less than 0.1 µM.

As usually defined, the CC50 is the concentration at which the toxic effect on the cells reaches its halfway point. For the compound `O=S(=O)([O-])[O-].O=S(=O)([O-])[O-].[O]=[V+2].[O]=[V+2].c1cc(CN2CCCNCCNCCCNCC2)ccc1CN1CCCNCCNCCCNCC1` [Complex 3, oxovanadium(IV)-(xylylbicyclam) disulfate], in the series on MT-4 cells, the CC50 is greater than 151 µM. Besides, in series [1], the “antiviral (anti-HIV) activity in words” value is on record as “highly active” and the 50% inhibitory concentration (IC50) was in the range of 1 to 5 µM. For the same compound, the IC50 with HIV-2 (ROD) was found to be 3.3 µM.

For the compound `[Cl-].[Cl-].[Cl-].[Cl-].[O]=[V+2].[O]=[V+2].c1cc(CN2CCCNCCNCCCNCC2)ccc1CN1CCCNCCNCCCNCC1` [Complex 4, oxovanadium(IV)-(xylylbicyclam) tetrachloride], in the series on MT-4 cells (read-out: av. CC50, average, uninfected MT-4 cells), the CC50 was greater than 161 µM. Also, the CC50 with MT-4 cells (single determinations, reduces viability of uninfected MT-4 cells by 50%) is greater than 161 µM. Further, in series [1], the “antiviral (anti-HIV) activity in words” value is listed as “highly active” and the IC50 is 0.1 to 0.3 µM.

For Co(III)-cyclam, the “anti-HIV activity of metal cyclams in words” value in the series on HIV is “inactive”.

As for Pd(II)-cyclam, in the series with HIV, the “anti-HIV activity of metal cyclams in words” value was “inactive”.

Consider “oxovanadium(IV)-cyclam dichloride [Complex 2]”, for which, in series [1], the “antiviral (anti-HIV) activity in words” value is “inactive” and the IC50 is greater than 360 µM.

Take “oxovanadium(IV)-cyclam sulfate [Complex 1]”: in series [1], the “antiviral (anti-HIV) activity in words” value is “inactive” and the IC50 was greater than 340 µM.
